Laboratory results taken from paper PMC12590273, “Systematic design of DMBT1-derived peptides correlating physicochemical properties and sequence motifs with siRNA delivery and efficacy in cancer therapy” (eBioMedicine, 2025).
Non-standard residues stand in square brackets, D forms with d. Residues, ends and D or L forms follow the SMILES beside them.

Key:
[1] = system: siRNA (Stealth RNAi Negative Control siRNA); test: Electrophoretic mobility shift assay (EMSA), peptide-siRNA binding/encapsulation; conditions: peptides 10–100 μM mixed with siRNA at 1:10–1:100 molar ratios in RNase-free water, 30 min 37 °C or 1 h 50 °C; 4% agarose gel, MOPS pH 7.5, GelRed
Method: Peptides (10–100 μM) were mixed with siRNA at 1:10–1:100 molar ratios in RNase-free water and incubated 30 min at 37 °C (or 1 h at 50 °C for low-binding peptides). Complexes, supplemented with 5% glycerol, were run on 4% agarose gels in MOPS buffer (pH 7.5) at 70 V for 30 min, stained with GelRed, and imaged under UV. FastRuler UltraLow served as the size marker.

A375 and MCF7 cells = test: Cell internalisation of DCPP/Alexa Fluor 555 siRNA complexes (statements not split by cell line); assay type: cell-based; conditions: Alexa Fluor 555 siRNA 25–100 nM, 24 h, fluorescence normalised to crystal violet; cell line not stated
Method: A375 (RRID: CVCL_0132) and MCF7 cells (RRID: CVCL_0031) were obtained from ATCC. MEL-STV cells (here called MelST, RRID: CVCL_9U71) are immortalised human melanocytes generated by introducing SV40 large T antigen and hTERT. They are non-tumorigenic and were kindly provided by Dr. Robert Allan Weinberg (Whitehead Institute, MIT). All cell lines were cultured in DMEM + GlutaMax™ with 5% FBS at 37 °C/5% CO2. Working solutions of Alexa Fluor 555 siRNA were prepared in UltraPure DNase/RNase-Free Distilled Water at concentrations of 100–400 nM, and peptide solutions were prepared to achieve the desired peptide–siRNA binding molar ratios, selected based on the siRNA binding efficiency of each peptide. siRNA was mixed with its respective peptide solution and incubated for 30 min at 37 °C or 1 h at 50 °C, depending on the peptide. After incubation, the complexes were diluted in OptiMEM and added to the wells at 50 μL per well, with final siRNA concentrations ranging from 25 to 100 nM. […] OptiMEM without phenol red was added, and fluorescence was measured using Alexa Fluor 555 (excitation/emission: 553/568 nm, reading: 535/595 nm). Cells were subsequently stained with crystal violet and resuspended in citrate buffer, and absorbance was measured. Crystal violet absorbance was used to normalise the fluorescence signal, accounting for cell density or viability differences.

GAPDH in A375 cells = test: GAPDH silencing by DCPP/GAPDH-siRNA complexes (KDalert kit); assay type: cell-based, human; conditions: 2.5% FBS, 48 h, three biological replicates
Method: GAPDH silencing: DCPP/GAPDH-siRNA complexes were prepared as above, diluted in OptiMEM, and added (50 μL) to 96-well plates. A375 and MCF7 cells (2 × 10^3 cells/well) in 50 μL OptiMEM + 5% FBS + 1% P/S were plated onto the complexes (final 100 μL, 2.5% FBS). After 48 h, GAPDH knock-down was measured with the KDalert™ kit.

Molecule: CC(=O)N[C@@H](CCCCN)C(=O)N1CCC[C@H]1C(=O)N[C@@H](CO)C(=O)N[C@@H](CO)C(=O)N1CCC[C@H]1C(=O)N1CCC[C@H]1C(=O)N[C@@H](CCC(=O)O)C(=O)N[C@@H](CCC(=O)O)C(=O)NCC(=O)N[C@H](CCCNC(=N)N)C(=O)N[C@H](C(=O)N[C@@H](CCC(=O)O)C(=O)N[C@H](C(=O)N[C@@H](CC(C)C)C(=O)N[C@@H](Cc1c[nH]cn1)C(=O)N[C@@H](Cc1c[nH]cn1)C(=O)N[C@@H](Cc1c[nH]cn1)C(=O)N[C@@H](Cc1c[nH]cn1)C(=O)N[C@H](Cc1c[nH]c2ccccc12)C(=O)N[C@@H](CCCNC(=N)N)C(=O)N[C@@H](CCCNC(=N)N)C(=O)N[C@@H](CCCNC(=N)N)C(=O)N[C@@H](CCCNC(=N)N)C(=O)N[C@H](Cc1c[nH]c2ccccc12)C(N)=O)C(C)C)C(C)C [A6DH, Ac-KPSSPPEEGrVEVLHHHHwRRRRw-NH2] (Ac-KPSSPPEEG[dR]VEVLHHHH[dW]RRRR[dW]-NH2)
- siRNA binding / encapsulation (peptide-siRNA binding molar ratio by EMSA) [1]: no detectable siRNA binding

Molecule: Ac-GRVEVLRRRRWKPSSPPEEHH-NH2 [D4RA6H, CD44-targeting DMBT1-derived peptide containing the A6 motif]
- siRNA binding / encapsulation (peptide-siRNA binding molar ratio by EMSA) [1]: no detectable siRNA binding

Molecule: SREPRGD
- shape of dose–response curve of cell interaction (A375 and MCF7 cells): sigmoid curve with a plateau
- siRNA binding / encapsulation (peptide-siRNA binding molar ratio by EMSA) [1]: efficiently bound siRNA
- GAPDH silencing in A375 cells (GAPDH in A375 cells): significant gene silencing

Molecule: SREPRGDK
- siRNA binding / encapsulation (peptide-siRNA binding molar ratio by EMSA) [1]: efficiently bound siRNA
